In patent US10167262B2, “Herbicidal substituted 3-arylpyrazoles” (FMC CORPORATION, priority 2014, dated 2019):
Like-named read-outs stand apart in the source and are kept apart here.

Key:
Assay type in all cases: in vivo
[1] = system: pigweed (Amaranthus retroflexus); assay: Test A pre-/postemergence greenhouse herbicide test, visual injury rating 0-100; conditions: for pest or weed control at 500 g/ha: 500 g ai/ha
Procedure, shortened: (§1)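 Ratings are visual, 0 to 100 relative to untreated plants, taken approximately 10 days post-treatment in the greenhouse. Both preemergence soil and postemergence foliar routes were used with surfactant-containing non-phytotoxic solvent formulations.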

[2] = system: large (Lg) crabgrass (Digitaria sanguinalis); assay: as above; conditions: for pest or weed control at 500 g/ha: 500 g ai/ha
Procedure, shortened: as §1

[3] = system: barnyardgrass (Echinochloa crus-galli); assay: as above; conditions: for pest or weed control at 500 g/ha: 500 g ai/ha
Procedure, shortened: as §1

[4] = system: morningglory (Ipomoea spp.); assay: as above; conditions: for pest or weed control at 500 g/ha: 500 g ai/ha
Procedure, shortened: as §1

[5] = system: velvetleaf (Abutilon theophrasti); assay: as above; conditions: for pest or weed control at 500 g/ha: 500 g ai/ha
Procedure, shortened: as §1

[6] = system: giant foxtail (Setaria faberii); assay: as above; conditions: for pest or weed control at 500 g/ha: 500 g ai/ha
Procedure, shortened: as §1

[7] = system: corn (Zea mays); assay: as above; conditions: for plant injury at 500 g/ha: 500 g ai/ha
Procedure, shortened: as §1

[8] = system: wheat (Triticum aestivum); assay: as above
Procedure, shortened: as §1

[9] = system: velvetleaf (Abutilon theophrasti); assay: Test C pre-/postemergence greenhouse test, plant response rating 0-100; conditions: Abutilon theophrasti, post-emergence, Postemergence
Procedure, shortened: (§2)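 Pre-emergence soil and post-emergence foliar sprays were applied simultaneously to seeded loam–sand pots and to 1–4-leaf plants in peat medium; greenhouse holding lasted 13–15 days, then plants were scored visually from 0 (no effect) to 100 (complete control).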

[10] = system: johnsongrass (Sorghum halepense); assay: as above; conditions: Sorghum halepense, post-emergence, Postemergence
Procedure, shortened: as §2

[11] = system: morningglory (Ipomoea coccinea); assay: as above; conditions: Ipomoea, post-emergence, Postemergence
Procedure, shortened: as §2

[12] = system: lambsquarters (Chenopodium album); assay: as above; conditions: Chenopodium album, post-emergence, Postemergence
Procedure, shortened: as §2

CCCn1cc(C(=O)c2ccccc2)c(-c2cc(Cl)cc(Cl)c2)n1 [Compound 61, [3-(3,5-dichlorophenyl)-1-propyl-1H-pyrazol-4-yl]phenylmethanone]
pest or weed control at 125 g/ha ([1]; Amaranthus retroflexus, post-emergence, 240 h, Postemergence, 125 g ai/ha, read-out: Plant response rating (0 to 100 scale), Pigweed): 80% | pest or weed control at 500 g/ha ([1]; Amaranthus retroflexus, post-emergence, 240 h, Postemergence, read-out: Plant response rating (0 to 100 scale), Pigweed): 90% | pest or weed control at 500 g/ha ([1]; Amaranthus retroflexus, pre-emergence, 240 h, Preemergence, read-out: Plant response rating (0 to 100 scale), Pigweed): 90% | Pigweed plant response rating (0 = no effect, 100 = complete control) ([1]; Preemergence, 125 g ai/ha): 0 | pest or weed control at 125 g/ha ([2]; Digitaria sanguinalis, post-emergence, 240 h, Postemergence, 125 g ai/ha, read-out: Plant response rating (0 to 100 scale), Crabgrass, Large): 0% | pest or weed control at 500 g/ha ([2]; Digitaria sanguinalis, post-emergence, 240 h, Postemergence, read-out: Plant response rating (0 to 100 scale), Crabgrass, Large): 0% | pest or weed control at 500 g/ha ([2]; Digitaria sanguinalis, pre-emergence, 240 h, Preemergence, read-out: Plant response rating (0 to 100 scale), Crabgrass, Large): 0% | Crabgrass, Large plant response rating (0 = no effect, 100 = complete control) ([2]; Preemergence, 125 g ai/ha): 0 | pest or weed control at 125 g/ha ([3]; Echinochloa crus-galli, post-emergence, 240 h, Postemergence, 125 g ai/ha, read-out: Plant response rating (0 to 100 scale), Barnyardgrass): 0% | pest or weed control at 500 g/ha ([3]; Echinochloa crus-galli, post-emergence, 240 h, Postemergence, read-out: Plant response rating (0 to 100 scale), Barnyardgrass): 0% | pest or weed control at 500 g/ha ([3]; Echinochloa crus-galli, pre-emergence, 240 h, Preemergence, read-out: Plant response rating (0 to 100 scale), Barnyardgrass): 0% | Barnyardgrass plant response rating (0 = no effect, 100 = complete control) ([3]; Preemergence, 125 g ai/ha): 0 | pest or weed control at 125 g/ha ([4]; Ipomoea, post-emergence, 240 h, Postemergence, 125 g ai/ha, read-out: Plant response rating (0 to 100 scale), Morningglory): 0% | pest or weed control at 500 g/ha ([4]; Ipomoea, post-emergence, 240 h, Postemergence, read-out: Plant response rating (0 to 100 scale), Morningglory): 0% | pest or weed control at 500 g/ha ([4]; Ipomoea, pre-emergence, 240 h, Preemergence, read-out: Plant response rating (0 to 100 scale), Morningglory): 0% | Morningglory plant response rating (0 = no effect, 100 = complete control) ([4]; Preemergence, 125 g ai/ha): 0 | pest or weed control at 125 g/ha ([5]; Abutilon theophrasti, post-emergence, 240 h, Postemergence, 125 g ai/ha, read-out: Plant response rating (0 to 100 scale), Velvetleaf): 80% | pest or weed control at 500 g/ha ([5]; Abutilon theophrasti, post-emergence, 240 h, Postemergence, read-out: Plant response rating (0 to 100 scale), Velvetleaf): 90% | pest or weed control at 500 g/ha ([5]; Abutilon theophrasti, pre-emergence, 240 h, Preemergence, read-out: Plant response rating (0 to 100 scale), Velvetleaf): 40% | Velvetleaf plant response rating (0 = no effect, 100 = complete control) ([5]; Preemergence, 125 g ai/ha): 0 | Foxtail, Giant plant response rating (0 = no effect, 100 = complete control) ([6]; Preemergence, 125 g ai/ha): 0 | pest or weed control at 125 g/ha ([6]; Setaria faberi, post-emergence, 240 h, Postemergence, 125 g ai/ha, read-out: Plant response rating (0 to 100 scale), Foxtail, Giant): 0% | pest or weed control at 500 g/ha ([6]; Setaria faberi, post-emergence, 240 h, Postemergence, read-out: Plant response rating (0 to 100 scale), Foxtail, Giant): 0% | pest or weed control at 500 g/ha ([6]; Setaria faberi, pre-emergence, 240 h, Preemergence, read-out: Plant response rating (0 to 100 scale), Foxtail, Giant): 0% | Corn plant response rating (0 = no effect, 100 = complete control) ([7]; Preemergence, 125 g ai/ha): 0 | plant injury at 125 g/ha ([7]; Zea mays, post-emergence, 240 h, Postemergence, 125 g ai/ha, read-out: Plant response rating (0 to 100 scale), Corn): 0% | plant injury at 500 g/ha ([7]; Zea mays, post-emergence, 240 h, Postemergence, read-out: Plant response rating (0 to 100 scale), Corn): 0% | plant injury at 500 g/ha ([7]; Zea mays, pre-emergence, 240 h, Preemergence, read-out: Plant response rating (0 to 100 scale), Corn): 0% | Wheat plant response rating (0 = no effect, 100 = complete control) ([8]; Preemergence, 125 g ai/ha): 0 | plant injury at 125 g/ha ([8]; Triticum aestivum, post-emergence, 240 h, Postemergence, 125 g ai/ha, read-out: Plant response rating (0 to 100 scale), Wheat): 0% | plant injury at 500 g/ha ([8]; Triticum aestivum, post-emergence, 240 h, Postemergence, 500 g ai/ha, read-out: Plant response rating (0 to 100 scale), Wheat): 0% | pest or weed control at 62 g/ha ([9]; 62 g ai/ha, read-out: Plant response rating (0 to 100), Velvetleaf): 40% | pest or weed control at 125 g/ha ([9]; 125 g ai/ha, read-out: Plant response rating (0 to 100), Velvetleaf): 75% | pest or weed control at 250 g/ha ([9]; 250 g ai/ha, scale 0 to 100): 75% | pest or weed control at 62 g/ha ([10]; 62 g ai/ha, read-out: Plant response rating (0 to 100), Johnsongrass): 10% | pest or weed control at 125 g/ha ([10]; 125 g ai/ha, read-out: Plant response rating (0 to 100), Johnsongrass): 10% | pest or weed control at 250 g/ha ([10]; 250 g ai/ha, scale 0 to 100): 10% | pest or weed control at 62 g/ha ([11]; 62 g ai/ha, read-out: Plant response rating (0 to 100), Morningglory): 0% | pest or weed control at 125 g/ha ([11]; 125 g ai/ha, read-out: Plant response rating (0 to 100), Morningglory): 0% | pest or weed control at 250 g/ha ([11]; 250 g ai/ha, scale 0 to 100): 0% | pest or weed control at 62 g/ha ([12]; 62 g ai/ha, read-out: Plant response rating (0 to 100), Lambsquarters): 40% | pest or weed control at 125 g/ha ([12]; 125 g ai/ha, read-out: Plant response rating (0 to 100), Lambsquarters): 55% | pest or weed control at 250 g/ha ([12]; 250 g ai/ha, scale 0 to 100): 55%
